# Laboratory results reported in US11840517B2, “Lappaconitine derivative with analgesic activity, and preparation and application thereof” (priority 2021, dated 2023).
# Test system: Kunming mice
# Test: Analgesic activity by acetic acid-induced writhing method
# Assay type: in vivo
# Conditions: Mus musculus, sc, subcutaneous, 15 min before i.p. 0.7% acetic acid, writhing inhibition vs blank group, read-out: Analgesia rate ± SEM (%); for inhibition in vivo at 10 mg/kg: Dosing concentration 10 mg/kg; for inhibition in vivo at 3.5 mg/kg: Dosing concentration 3.5 mg/kg
# Protocol: The experimental animals were Kunming mice (male:female=1:1), weighed 22±2 g, which were provided by Chengdu dossy experimental animals Co., ltd., China. The mice were kept in the animal room of the School of Life Science and Engineering, Southwest Jiaotong University, where the animal room was set at a temperature of 23±2° C., a humidity of 55±5% and a photoperiod of 16:8 h (L:D). Before the experiment, the mice were freely fed for 2-3 days with water and feed to adapt to the new environment. Then, the mice were treated by water fasting for 12 h. 10 animals were allocated to each group to ensure that there are at least 6 sets of valid data in each group. The animal experiments were carried out in strict accordance with the national regulations on the management of experimental animals.
# The compounds prepared in the examples provided herein and the positive control lappaconitine were all dissolved with 0.1 mol/L HCl according to the amount of the substance ratio of 1:1, and then diluted with physiological saline to a concentration to be determined. The samples to be tested were the compounds prepared the examples provided herein; the positive control was lappaconitine; and the blank control was physiological saline containing 0.1 mol/L HCl.
# The animals in the control groups were subjected to the same treatment as those in the experimental group except that the samples to be test were replaced with physiological saline.
# 10 mice were randomly selected, male:female=1:1, were placed in independent cages. Each mouse was injected subcutaneously with the sample solution mentioned above at a dose of 0.1 mL/10 g body weight. After 15 min, a 0.7% acetic acid solution was intraperitoneally injected. The number of writhing reactions in each mouse within 15 minutes was recorded. The group that the mice were injected with physiological saline subcutaneously was the blank group; the group that the mice were injected with the sample to be tested was the experimental group; and the group that the mice were injected with lappaconitine was the positive group. The analgesic activity was represented by a percentage of the reduced number of writhing compared to the blank group (writhing inhibition rate), which were specifically as follows: writhing inhibition rate (analgesic activity)=(average number of writhing times in the blank group-average number of writhing times in the experimental group)/average number of writhing times in the blank group×100%.
Structure (SMILES),inhibition in vivo at 10 mg/kg,further results
CCN1C[C@]2(OC(=O)c3ccccc3NC(=O)NC)CC[C@H](OC)[C@@]34C2CC([C@@H]13)[C@@]1(O)C[C@H](OC)[C@H]2CC4[C@]1(O)[C@H]2OC (stereo partly shown) [Compound 18],20 ± 6.67%,–
C/C=C/S(=O)(=O)Nc1ccccc1C(=O)O[C@@]12CC[C@H](OC)[C@@]34C1CC([C@H]3N(CC)C2)[C@@]1(O)C[C@H](OC)[C@H]2CC4[C@]1(O)[C@H]2OC (stereo partly shown) [Compound 16],24.4 ± 8.46%,–
CCN1C[C@]2(OC(=O)c3ccccc3NS(=O)(=O)c3cccc(F)c3)CC[C@H](OC)[C@@]34C2CC([C@@H]13)[C@@]1(O)C[C@H](OC)[C@H]2CC4[C@]1(O)[C@H]2OC (stereo partly shown) [Compound 7],50.2 ± 6.85%,–
C=CCOC(=O)Nc1ccccc1C(=O)O[C@@]12CC[C@H](OC)C34C1CC([C@H]3N(CC)C2)[C@@]1(O)C[C@H](OC)[C@H]2CC4[C@]1(O)[C@H]2OC (stereo partly shown) [Compound 24],13.3 ± 9%,–
CCN1C[C@]2(OC(=O)c3ccccc3NS(=O)(=O)c3cccc4cccnc34)CC[C@H](OC)[C@@]34C2CC([C@@H]13)[C@@]1(O)C[C@H](OC)[C@H]2CC4[C@]1(O)[C@H]2OC (stereo partly shown) [Compound 12],41.9 ± 3.8%,–
CCN1C[C@]2(OC(=O)c3ccccc3NS(=O)(=O)c3cccs3)CC[C@H](OC)C34C2CC([C@@H]13)[C@@]1(O)C[C@H](OC)[C@H]2CC4[C@]1(O)[C@H]2OC (stereo partly shown) [Compound 29],1.03 ± 5.37%,–
CCN1C[C@]2(OC(=O)c3ccccc3NC(=O)C3CCCO3)CC[C@H](OC)C3C2C[C@@H]([C@@H]1C)[C@@]1(O)CC(OC)[C@H]2CC3[C@]1(O)[C@H]2OC (stereo partly shown) [Compound 48],21.8 ± 12.6%,–
CCN1C[C@]2(OC(=O)c3ccccc3NS(=O)(=O)c3ccc(-c4ccccc4)cc3)CC[C@H](OC)C34C2CC([C@@H]13)[C@@]1(O)C[C@H](OC)[C@H]2CC4[C@]1(O)[C@H]2OC (stereo partly shown) [Compound 22],16.1 ± 10.6%,–
CCN1C[C@]2(OC(=O)c3ccccc3NS(=O)(=O)Cc3ccc([N+](=O)[O-])cc3)CC[C@H](OC)[C@@]34C2CC([C@@H]13)[C@@]1(O)C[C@H](OC)[C@H]2CC4[C@]1(O)[C@H]2OC (stereo partly shown) [Compound 11],42.4 ± 5.98%,–
CCN1C[C@]2(OC(=O)c3ccccc3NC(=O)c3ccc(Cl)cc3)CC[C@H](OC)C3C2C[C@@H]([C@@H]1C)[C@@]1(O)CC(OC)[C@H]2CC3[C@]1(O)[C@H]2OC (stereo partly shown) [Compound 40],31.6 ± 12.6%,–
CCc1ccc(C(=O)Nc2ccccc2C(=O)O[C@@]23CC[C@H](OC)C4C2C[C@@H]([C@H](C)N(CC)C3)[C@@]2(O)CC(OC)[C@H]3CC4[C@]2(O)[C@H]3OC)cc1 (stereo partly shown) [Compound 46],26.7 ± 7.95%,–
CCN1C[C@]2(OC(=O)c3ccccc3NC(=O)C3CCOCC3)CC[C@H](OC)C3C2C[C@@H]([C@@H]1C)[C@@]1(O)CC(OC)[C@H]2CC3[C@]1(O)[C@H]2OC (stereo partly shown) [Compound 50],16.4 ± 8.07%,–
CCN1C[C@]2(OC(=O)c3ccccc3NC(=O)C3CCOC3)CC[C@H](OC)C3C2C[C@@H]([C@@H]1C)[C@@]1(O)CC(OC)[C@H]2CC3[C@]1(O)[C@H]2OC (stereo partly shown) [Compound 38],34 ± 8.92%,–
CCCC(C)C(=O)Nc1ccccc1C(=O)O[C@@]12CC[C@H](OC)C3C1C[C@@H]([C@H](C)N(CC)C2)[C@@]1(O)CC(OC)[C@H]2CC3[C@]1(O)[C@H]2OC (stereo partly shown) [Compound 42],31.3 ± 10.7%,–
CCCCCCC(=O)Nc1ccccc1C(=O)O[C@@]12CC[C@H](OC)C34C1CC([C@H]3N(CC)C2)[C@@]1(O)C[C@H](OC)[C@H]2CC4[C@]1(O)[C@H]2OC (stereo partly shown) [Compound 34],54.2 ± 6.15%,–
CCN1C[C@]2(OC(=O)c3ccccc3NC(=O)C3CC3)CC[C@H](OC)C3C2C[C@@H]([C@@H]1C)[C@@]1(O)CC(OC)[C@H]2CC3[C@]1(O)[C@H]2OC (stereo partly shown) [Compound 39],–,inhibition in vivo at 5 mg/kg (Dosing concentration 5 mg/kg): 33.5 ± 7.27%

Structure (SMILES),inhibition in vivo at 10 mg/kg,further results
CCN1C[C@]2(OC(=O)c3ccccc3NS(=O)(=O)c3ccc(OC)cc3)CC[C@H](OC)[C@@]34C2CC([C@@H]13)[C@@]1(O)C[C@H](OC)[C@H]2CC4[C@]1(O)[C@H]2OC (stereo partly shown) [Compound 20],–,inhibition in vivo at 3.5 mg/kg: 16.8 ± 6.09%
CCN1C[C@]2(OC(=O)c3ccccc3NS(=O)(=O)c3ccc(Br)cc3)CC[C@H](OC)C34C2CC([C@@H]13)[C@@]1(O)C[C@H](OC)[C@H]2CC4[C@]1(O)[C@H]2OC (stereo partly shown) [Compound 26],11.4 ± 7.58%,–
CCN1C[C@]2(OC(=O)c3ccccc3NS(=O)(=O)c3cccc(OC)c3)CC[C@H](OC)[C@@]34C2CC([C@@H]13)[C@@]1(O)C[C@H](OC)[C@H]2CC4[C@]1(O)[C@H]2OC (stereo partly shown) [Compound 13],–,inhibition in vivo at 3.5 mg/kg: 37.1 ± 15.7%
CCN1C[C@]2(OC(=O)c3ccccc3NC(=O)c3cnc(Cl)cn3)CC[C@H](OC)C3C2C[C@@H]([C@@H]1C)[C@@]1(O)CC(OC)[C@H]2CC3[C@]1(O)[C@H]2OC (stereo partly shown) [Compound 41],31.5 ± 8.19%,–
CCN1C[C@]2(OC(=O)c3ccccc3NS(=O)(=O)Oc3ccccc3)CC[C@H](OC)C34C2CC([C@@H]13)[C@@]1(O)C[C@H](OC)[C@H]2CC4[C@]1(O)[C@H]2OC (stereo partly shown) [Compound 28],1.03 ± 10.3%,–
CCN1C[C@]2(OC(=O)c3ccccc3NS(=O)(=O)c3ccc(C(F)(F)F)cc3)CC[C@H](OC)[C@@]34C2CC([C@@H]13)[C@@]1(O)C[C@H](OC)[C@H]2CC4[C@]1(O)[C@H]2OC (stereo partly shown) [Compound 19],19.4 ± 5%,–
CCN1C[C@]2(OC(=O)c3ccccc3NS(=O)(=O)Cc3ccccc3)CC[C@H](OC)[C@@]34C2CC([C@@H]13)[C@@]1(O)C[C@H](OC)[C@H]2CC4[C@]1(O)[C@H]2OC (stereo partly shown) [Compound 9],43.8 ± 4.5%,–
CCN1C[C@]2(OC(=O)c3ccccc3NC(=O)c3ccc(C(=O)OC)cc3)CC[C@H](OC)C3C2C[C@@H]([C@@H]1C)[C@@]1(O)CC(OC)[C@H]2CC3[C@]1(O)[C@H]2OC (stereo partly shown) [Compound 36],36.4 ± 9.54%,–
CCN1C[C@]2(OC(=O)c3ccccc3NS(=O)(=O)c3ccc(F)cc3)CC[C@H](OC)C34C2CC([C@@H]13)[C@@]1(O)C[C@H](OC)[C@H]2CC4[C@]1(O)[C@H]2OC (stereo partly shown) [Compound 23],–,inhibition in vivo at 3.5 mg/kg: 14.7 ± 13.2%
CCN1C[C@]2(OC(=O)c3ccccc3NC(=O)c3ccc(Cl)s3)CC[C@H](OC)C3C2C[C@@H]([C@@H]1C)[C@@]1(O)CC(OC)[C@H]2CC3[C@]1(O)[C@H]2OC (stereo partly shown) [Compound 45],27.8 ± 5.83%,–
CCCOc1ccc(C(=O)Nc2ccccc2C(=O)O[C@@]23CC[C@H](OC)C45C2CC([C@H]4N(CC)C3)[C@@]2(O)C[C@H](OC)[C@H]3CC5[C@]2(O)[C@H]3OC)cc1 (stereo partly shown) [Compound 35],48.4 ± 6.08%,–
CCN1C[C@]2(OC(=O)c3ccccc3NC(=O)c3ccc(C(C)C)cc3)CC[C@H](OC)C3C2C[C@@H]([C@@H]1C)[C@@]1(O)CC(OC)[C@H]2CC3[C@]1(O)[C@H]2OC (stereo partly shown) [Compound 49],21 ± 6.58%,–
CCN1C[C@]2(OC(=O)c3ccccc3NS(=O)(=O)c3ccc(Cl)cc3)CC[C@H](OC)C34C2CC([C@@H]13)[C@@]1(O)C[C@H](OC)[C@H]2CC4[C@]1(O)[C@H]2OC (stereo partly shown) [Compound 25],11.7 ± 7.78%,–
CCCCc1ccc(C(=O)Nc2ccccc2C(=O)O[C@@]23CC[C@H](OC)C4C2C[C@@H]([C@H](C)N(CC)C3)[C@@]2(O)CC(OC)[C@H]3CC4[C@]2(O)[C@H]3OC)cc1 (stereo partly shown) [Compound 44],28.2 ± 7.88%,–
CCN1C[C@]2(OC(=O)c3ccccc3NS(=O)(=O)c3cccc4ccccc34)CC[C@H](OC)[C@@]34C2CC([C@@H]13)[C@@]1(O)C[C@H](OC)[C@H]2CC4[C@]1(O)[C@H]2OC (stereo partly shown) [Compound 8],49.2 ± 5%,–
